These results are taken from US20260286316A1, “METHOD OF PRODUCTION OF MODIFIED PHAGE AND METHOD OF TREATMENT USING SAME” (priority 2022, published 2026).

The test system of experiment [1] is phage non-sensitive S. aureus strains (C43, C330, C285 and C319). Description: Phage and clindamycin combination treatment (OD600). In kind it is cell-based, Staphylococcus aureus. The following applies: ½ MIC clindamycin only or phage only (MOI=1), 24 hours. The text has this: FIG. 6 provides graphical results showing that the combination of S. aureus phage and ½ MIC clindamycin kills non-sensitive S. aureus strains: (A) S. aureus C43 treated with APTC-SA-2 and ½ MIC clindamycin; (B) S. aureus C330 treated with APTC-SA-2 and ½ MIC clindamycin; (C) S. aureus ATCC25923 treated with APTC-SA-2 and ½ MIC clindamycin; (D) S. aureus C285 treated with APTC-SA-12 and ½ MIC clindamycin; (E) S. aureus C319 treated with APTC-SA-12 and ½ MIC clindamycin; and (F) S. aureus ATCC25923 treated with APTC-SA-12 and ½ MIC clindamycin. Significance was determined compared to untreated control. Data expressed as mean±SEM for three independent experiments. ****, p<0.0001; ns, no significant. C=clindamycin;
A phage and clindamycin synergy assay was performed using 96 well plates. In brief, selected S. aureus strains (phage non-sensitive) were grown on 1.5% TSA at 37° C. overnight. A single colony was transferred to TSB to generate a culture with a starting concentration of 5×10^5 CFU/ml. Phages were added to the bacteria culture at a MOI of 1 according to phage titers. Clindamycin was added to the cultures at ½ MIC (according to the MIC assay result). Optical density (Gorski A et al., Antibiotics (Basel) 9 (11), 2020) readings at 600 nm were recorded after 24 hours.

Experiment [2] has as its system S. aureus CI3. Description: Rat rhinosinusitis model, efficacy arm (sinus mucosa CFU, biofilm biomass, histopathology). In kind it is in vivo, Sprague Dawley rats. The following applies: Sa87, ½ MIC clindamycin or ½ MIC azithromycin only. The source says:
Rat nasal tissues were fixed in 10% neutral buffered formalin. Tissue samples were then decalcified using 9.5% nitric acid in 1% ethylenediaminetetracetic acid (EDTA), processed to paraffin wax, and 6 μm sections cut and stained with H&E. The samples were examined by a veterinary pathologist blinded to the treatments given.
An established murine rhinosinusitis model was used with modifications (see YU C-j et al., Chinese Journal of Otorhinolaryngology-Skull Base Surgery 6, 2011; Zhang F et al., Am J Rhinol Allergy 27 (5): 361-366, 2013; and Jin M et al., Ear Arch Oto-Rhino-L 268 (6): 857-861, 2011). […] The sponges were placed at approximately 15 mm from the anterior nostril, located in the ostiomeatal complex. The rats were monitored for a nine-day period to allow for mucosal biofilms to form, and, on the tenth day, the sponges were removed. A two-day recovery was given to the rat before treatments begun. […] Treatments were administered intranasally twice a day for 14 days. Rats were monitored for weight and respiratory alterations (respiration rate; nasal discharge, hyperaemia or pruritus; and sneezing) during treatment, and, 14 days post-treatment initiation, the rats were humanely sacrificed. Their sinus mucosa was harvested for CFU counting, biofilm quantification, histopathology, and phage enumeration. […]
The quantification of biofilm biomass on sinus mucosa was determined using an established protocol (Singhal D et al., editors. Quantitative analysis of in vivo mucosal bacterial biofilms. International Forum of Allergy & Rhinology; 2012: Wiley Online Library (27). Briefly, the frontal sinus mucosa was harvested and placed into Dulbecco's Modified Eagle's Medium (Life Technologies, Carlsbad, CA, United States of America) on ice. One piece of mucosa from each frontal sinus was stained with a LIVE/DEAD® BacLight Bacterial Viability Kit (Life Technologies Australia). The stained mucosa was then examined at 20× magnification using a confocal laser scanning microscope (Zeiss LSM700, Carl Zeiss AG, Oberkochen, Germany). […]

For experiment [3], the system named is S. aureus ATCC51650 and CI11 biofilms. Description: Biofilm viability, AlamarBlue assay. It is filed as cell-based, Staphylococcus aureus. The protocol:
Briefly, a 1.0 McFarland unit S. aureus culture suspended in 1:15 dilution in TSB was added to 96-well microtiter plates (Costar; Corning Incorporated, Corning, NY, United States of America). Plates were incubated for 48 hours at 37° C. on a rotating platform at 70 rpm (3D Gyratory Mixer; Ratek Instruments, Boronia, VIC, Australia) to allow biofilm formation followed by washing with phosphate-buffered saline. […] Wells were treated for 24 hours at 37° C. with gentle shaking. The AlamarBlue viability assay (Thermo Fisher Scientific, Waltham, MA, United States of America) was used as previously described (Richter K et al., editors. Mind “De GaPP”: in vitro efficacy of deferiprone and gallium-protoporphyrin against Staphylococcus aureus biofilms. International Forum of Allergy & Rhinology; 2016: Wiley Online Library to determine the anti-biofilm activity of the phage. Fluorescence was measured in a microplate reader (FLUOstar OPTIMA, BMG LABTECH, Offenburg, Germany) and the percent reduction of biofilm after treatment determined relative to untreated controls.
Background: Alamar Blue is a resazurin reagent that responds to reducing activity.

Some results are limits rather than exact numbers.

As for `CCC[C@@H]1C[C@@H](C(=O)N[C@@H]([C@H]2O[C@H](SC)[C@H](O)[C@@H](O)[C@H]2O)[C@H](C)Cl)N(C)C1` [clindamycin], in experiment [1], the “growth of S. aureus bacteria vs control, single agent” value is given as “similar”. The “histopathology of the maxilloturbinates, single agent” value in experiment [2] is “evidence of cilial denudation and surface epithelial erosion”. Further, the “reduction of clindamycin concentration required to significantly reduce biofilm viability by combination with phage” value in experiment [3] is “five”. Further, in experiment [3] (Staphylococcus aureus, ATCC51650, 24 hours treatment, lower concentrations no significant effect, read-out: clindamycin alone: concentration significantly reducing viability of preformed biofilms), the minimal effective concentration was at least 0.5 µg/mL.
